What was measured:
male C57BL6/J mice = experiment: Plasma/serum insulin and c-peptide after acute neddylation inhibitor treatment; format: in vivo; conditions: 6 h fast
Description: Male C57BL6/J mice on chow diet were treated with 45 mg/kg TAS4464 via subcutaneous injection at 9 am. Mice were then fasted for 6 hours and serum insulin was measured. Blood samples were collected at 0 min and 120 min and used for insulin measurement (n=4). Left-hand bars are controls. Right-hand bars are TAS4464 treatments.
Male C57BL6/J mice on Western diet were treated with 15 mg/kg TAS4464 via subcutaneous injection at 9 am. Mice were then fasted for 6 hours and serum c-peptide were measured (n=5).
Male C57BL6/J mice on chow diet were treated with 60 mg/kg MLN4924 via subcutaneous injection at 9 am. Mice were then fasted for 6 hours and serum c-peptide were measured (n=8)
Aspartate aminotransferase (AST) and alanine aminotransferase (ALT) assay kits were purchased from Pointe Scientific (Canton, MI). Free fatty acid assay kit was purchased from Biovision Inc. (Milpitas, CA). Insulin ELISA kit was purchased from Crystal Chem Inc. (Elk Grove Village, IL).
A hyperinsulinemic-euglycemic clamp study was conducted in which obese mice were treated with vehicle or MLN4924.

[1] = tested on: insulin resistant and obese male C57BL/6J mice; experiment: Acute TAS4464 treatment of obese, insulin resistant WD-fed mice; format: in vivo; conditions: WD 8 weeks
Description: Mice were fed WD for 8 weeks to render them insulin resistant and obese. Mice were then treated with 45 mg/kg TAS4464 or vehicle once at 5 pm on day 1 and once at 9 am on day 2. Body weight and blood glucose were measured at 3 pm on day 2.
Mice were fed WD for 8 weeks, after which the mice were injected with vehicle or 45 mg/kg TAS4464 subcutaneously at 5 pm on day 1 and 9 am on day 2. Mice were fasted from 9 am to 3 pm on day 2 and blood glucose was measured. Results are expressed as mean ± SEM. […]. “*”, p < 0.05, vs. Vehicle.
(§1) MLN4924 and TAS4464 were purchased from MedChemExpress (MCE, Monmouth Junction, NJ). For cell treatment, MLN4924 and TAS4464 were dissolved in DMSO. Cells were serum starved overnight and then treated with MLN4924, TAS4464 and/or insulin as indicated. For injection in mice, MLN4924 and TAS4464 were first dissolved in DMSO, which was further suspended in 10% (2-hydroxypropyl)-β-cyclodextrin (Sigma, St. Louis, MO). The final solution contains 1% DMSO. The subcutaneous injection volume is 200 µl/mouse.
Treatment of obese mice with TASS4464 reduced the blood glucose to ~100 mg/dl.

AML12 mouse hepatocytes = experiment: Western blot of insulin signaling and cullin neddylation in AML12 cells; format: cell-based
Description: MLN4924 increases IRS protein and AKT activation in the presence of insulin. Mouse AML 12 hepatocytes were serum starved for 16 h. Cells were then pre-treated with MLN4924 for 1 h followed by 100 nM insulin stimulation for 4 h. Western blot was then performed to evaluate insulin signaling activation.
AML 12 cells were serum starved for 16 h. Cells were then pre-treated with 500 nM MLN4924 or vehicle (DMSO) for 1 h, followed by 100 µg/ml cycloheximide (CHX) and 100 nM insulin treatment.
AML12 cells were serum starved for 16 h. Cells were then pre-treated with 500 nM MLN4924 for 1 h followed by 100 nM insulin stimulation in time course.
FIG. 18A is a Western blot analysis showing that MLN4924 enhances hepatocyte insulin responsiveness (signaling) by delaying feedback IRS degradation. AML12 cells were serum starved for 16 h. Cells were then pre-treated with MLN4924 for 1 h followed by insulin stimulation for 4 h.
FIG. 18D is a Western blot analysis of insulin signaling in AML12 cells serum starved for 16 h, then pre-treated with 500 nM MLN4924 for 1 h followed by 100 nM insulin stimulation in time course.
FIG. 18E is a Western blot analysis of AML12 cells serum starved for 16 h then pre-treated with 500 nM MLN4924 or vehicle (DMSO) for 1 h, followed by 100 µg/ml cycloheximide (CHX) and 100 nM insulin treatment. Cells were collected at the indicated time for Western blotting.
FIG. 18F is a Western blot analysis of insulin signaling in AML12 cells serum starved for 16 h then pre-treated with 100 nM rapamycin and 500 nM MLN4924 as indicated for 1 h followed by additional 2 h incubation in the presence or absence of 100 nM insulin. Blots are representative of 2-4 independent experiments.
(§2) FIG. 20 is a Western blot analysis showing that MLN4924 enhances hepatocyte insulin responsiveness in cells treated with wortmannin by delaying feedback IRS degradation (related to FIG. 18A). AML12 cells were serum starved for 16 h then pre-treated with 1 µM wortmannin (Wort) and 500 nM MLN4924 as indicated for 1 h followed by additional 2 h incubation in the presence or absence of 100 nM insulin. Blots are representative of 2 independent experiments.
as §2, with “21” for “20”, “Torin 1” for “wortmannin”, “250 nM Torin1” for “1 µM wortmannin (Wort)”
as §1
Protein lysates were prepared in RIPA buffer containing 1% SDS and protease inhibitors on ice for 1 h followed by brief sonication. After centrifugation, supernatant was used for SDS-PAGE and immunoblotting.
AML12 cells were a generous gift from Dr. Yanqiao Zhang (Northeast Ohio Medical University). AML12 cells were cultured in DMEM medium supplemented with a mixture of insulin-transferrin-selenium (#41400-045, ThermoFisher, Waltham, MA). For experiments, cells were cultured in serum free medium overnight before various treatments were initiated. The siGENOME SMARTpool siRNA and siControl were purchased from Dharmacon, Inc. (Lafayette, CO). The siRNA was transfected with Lipofectamine RNAiMAX reagent in a final concentration of 25 nM recommended by the manufacturer. […]

[2] = 1 µM wortmannin or 250 nM Torin1, 100 nM insulin

`CCOc1cccc(F)c1C#Cc1cn([C@@H]2O[C@H](CNS(N)(=O)=O)[C@@H](O)[C@H]2O)c2ncnc(N)c12` [TAS4464, 7H-Pyrrolo[2,3-d]pyrimidin-4-amine, 7-[5-[(aminosulfonyl)amino]-5-deoxy-beta-D-ribofuranosyl]-5-[2-(2-ethoxy-6-fluorophenyl)ethynyl]-] was tested, and the serum c-peptide concentration (male C57BL6/J mice; Western diet, 15 mg/kg SQ at 9 am) was “elevated serum c-peptide concentration”, the serum insulin concentration (male C57BL6/J mice; chow diet, 45 mg/kg SQ at 9 am) was “increases serum insulin concentration” and the “blood glucose after 6-hour fast” value ([1]; 45 mg/kg SQ at 5 pm day 1 and 9 am day 2) was ~ 100 mg/dl. The “blood glucose (in words)” value ([1]; 45 mg/kg SQ twice, 6 h fast) was “acutely reduced blood glucose”, the IRS protein (AML12 mouse hepatocytes; TAS4464 increasing doses, 5 h) was “increased IRS protein” and the “neddylated cullin 1” value (AML12 mouse hepatocytes; TAS4464 increasing doses, 5 h) was “significantly inhibited”. For the same compound, the total neddylated cullins (AML12 mouse hepatocytes; TAS4464 increasing doses, 5 h) was “significantly inhibited”.
`CCC(=O)N1CCN(c2ccc(-n3c(=O)ccc4cnc5ccc(-c6cnc7ccccc7c6)cc5c43)cc2C(F)(F)F)CC1` [Torin 1] was tested, and the “downstream AKT activation” value (AML12 mouse hepatocytes; [2]) was “decreased downstream AKT activation” and the “downstream mTOR activation” value (AML12 mouse hepatocytes; [2]) was “blocked downstream mTOR activation”.
